Counter-ions that a name gives are not always drawn. Some results are limits rather than exact numbers.

A short description of series [1]: Determination of compound Cmax and AUC after oral gavage (plasma LC-MS/MS). To be noted: Sprague-Dawley, rat, plasma, po, Structure (I) examples. In kind it is in vivo, Sprague-Dawley rats. Put shortly:
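Plasma exposure measured by LC-MS/MS after acetonitrile precipitation with internal standard, quantified against a standard curve made in plasma. Compound given orally by gavage to Sprague-Dawley rats at nominal 2.5 or 10 mg/kg, with K2EDTA plasma sampled at 0.5, 1, 2 and 4 h.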

The nature of series [2]: Fecal recovery of orally administered compounds. To be noted: Structure (I) examples, Table 16; rat, oral gavage, feces collected until 48 hr after dosing. In kind it is in vivo, Sprague-Dawley rats. Summed up:
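After oral dosing, feces collected in metabolic cages up to 48 h, lyophilized and ground. Duplicate weighed portions per animal extracted with organic solvent under non-compound-optimized conditions, so recovery may be a minimal estimate.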

Series [3] relates to Uptake of Phosphorus from the Intestine. Nature of the series: In vivo co-dosing in chow (urine P out / P consumed). The conditions noted are these: Rattus norvegicus, feed or water, rats, compound in chow, read-out: Mean % inhibition Urine Pout/P consumed; for inhibition in vivo at 50 mg/kg/day: mean drug dose 50 mg/kg/day; for inhibition in vivo at 100 mg/kg/day: mean drug dose 100 mg/kg/day. Put shortly:
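Male 7-week-old rats were fed a synthetic diet (0.6% P, 0.6% Ca) for 4 days, then housed in metabolic cages with compound in chow at 1.3 mg/g (nominal 100 mg/kg/day). Urinary P was measured by ion chromatography over 24–96 h and related to dietary P consumed. Percentage inhibition was calculated against no-drug controls.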

Series [4] is described as follows: Stability of compounds in simulated intestinal fluid (SIF). It counts as in vitro ADME. The conditions noted are these: simulated intestinal fluid (3 mg/mL pancreatin), incubation time 6 hr, relative to t=0. Put shortly: (§1)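 Compounds at […] were incubated 3 or 6 hr in USP simulated gastric fluid with 3 mg/mL pepsin or simulated intestinal fluid with 3 mg/mL pancreatin. Remaining compound was quantified by HPLC-UV or HPLC-MS peak area % and reported as percent of the t=0 level in the same medium.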

Series [5] can be described thus: Stability of compounds in simulated gastric fluid (SGF). It counts as in vitro ADME. The conditions noted are these: simulated gastric fluid (3 mg/mL pepsin), incubation time 6 hr, relative to t=0. Put shortly:
as §1

[6] abbreviates: Table 15, actual oral dose 15-40 mg/kg, plasma 0.5-4 h.
Setting [7] is: Table 15, actual oral dose 3-15 mg/kg, plasma 0.5-4 h.

For `CCN(CC)c1ccc(NC(=O)c2cccc(CCCOCCOCCOCCOCCOCCC(=O)O)c2)c(-c2cc(C(=O)NCc3cccc(C(F)(F)F)c3)ccn2)c1` [Example 300, 19-(3-(4-(diethylamino)-2-(4-(3-(trifluoromethyl)benzylcarbamoyl)pyridin-2-yl)phenylcarbamoyl)phenyl)-4,7,10,13,16-pentaoxanonadecan-1-oic acid], the AUC (commonly concentration integrated over time) in series [1] (setting [6]) is under 30 ng·h/mL. The Cmax (usually the highest concentration seen after dosing) in series [1] (Table 15, plasma 0.5-4 h) is under 10 ng/mL. Besides, the “% recovered in feces” value in series [2] is 20-80%. Further, in series [3], the inhibition in vivo at 50 mg/kg/day was at most 10%.
`CN(CCN1CCOCC1)C(=O)c1cccc(C(=O)Nc2ccc(N3CCCCC3)cc2-c2cc(C(=O)NCc3cccc(C(F)(F)F)c3)ccn2)c1` [Example 80, N1-Methyl-N1-(2-morpholinoethyl)-N3-(4-(piperidin-1-yl)-2-(4-((3-(trifluoromethyl)benzyl)carbamoyl)pyridin-2-yl)phenyl)isophthalamide]: the Cmax in series [1] (setting [7]) is under 10 ng/mL. Moreover, in series [2], the “% recovered in feces” value was 20-80%.
Regarding `CCN(CC)c1ccc(NC(=O)c2cccc(C(=O)N(C)CCOCCOCCOCCC(=O)O)c2)c(-c2cc(C(=O)NCc3cccc(C(F)(F)F)c3)ccn2)c1` [Example 188, 1-(3-((4-(diethylamino)-2-(4-((3-(trifluoromethyl)benzyl)carbamoyl)pyridin-2-yl)phenyl)carbamoyl)phenyl)-2-methyl-1-oxo-5,8,11-trioxa-2-azatetradecan-14-oic acid], in series [1] (setting [7]), the AUC was under 10 ng·h/mL and the Cmax was under 10 ng/mL. The inhibition in vivo at 110 mg/kg/day in series [3] (mean drug dose 110 mg/kg/day) lay within 10 to 30%.
In series [1] (setting [7]), `O=C(O)CCOCCOCCOCCOCCCc1cccc(C(=O)Nc2ccc(N3CCCCC3)cc2-c2cc(C(=O)N[C@H]3CCCc4ccccc43)ccn2)c1` [Example 252, 3-(2-(2-(2-(3-(3-((2-(4-(((S)-1,2,3,4-tetrahydronaphthalen-1-yl)carbamoyl)pyridin-2-yl)-4-(piperidin-1-yl)phenyl)carbamoyl)phenyl)propoxy)ethoxy)ethoxy)ethoxy)propanoic acid] yielded an AUC of under 30 ng·h/mL and a Cmax of under 30 ng/mL. Moreover, the “% remaining, SIF” value in series [4] is listed as over 80%. Also, the “% remaining, SGF” value in series [5] is on record as over 80%. Besides, the inhibition in vivo at 90 mg/kg/day in series [3] (mean drug dose 90 mg/kg/day) lay in the range of 10 to 30%.
In series [1] (setting [7]), `CN(CCOCCOCCOCCC(=O)O)C(=O)Cc1cccc(SCc2cccc(C(=O)Nc3ccc(N4CCCCC4)cc3-c3cc(C(=O)NCc4cccc(C(F)(F)F)c4)ccn3)c2)c1` [Example 138] registered an AUC of under 10 ng·h/mL and a Cmax of under 10 ng/mL. For the same compound, the “% recovered in feces” value in series [2] is under 20%. Also, in series [4], the “% remaining, SIF” value is 40-60%. In addition, in series [5], the “% remaining, SGF” value was over 80%.
In the case of `CCN(CC)c1ccc(NC(=O)c2cccc(C(=O)N(C)CCN(CCOC)CCOCCOCCOCCOCCOCCOCCOC)c2)c(-c2cc(C(=O)NCc3cccc(C(F)(F)F)c3)ccn2)c1` [Example 335, N^1-(4-(Diethylamino)-2-(4-(3-(trifluoromethyl)benzylcarbamoyl)pyridin-2-yl)phenyl)-N^3-(23-(2-methoxyethyl)-2,5,8,11,14,17,20-heptaoxa-23-azapentacosan-25-yl)-N^3-methylisophthalamide, trifluoroacetate], in series [1] (setting [7]), the AUC was over 50 ng·h/mL and the Cmax is under 10 ng/mL. Further, the “% recovered in feces” value in series [2] is recorded as over 80%. Moreover, the “% remaining, SIF” value in series [4] was over 80%. Further, the “% remaining, SGF” value in series [5] is recorded as over 80%. The inhibition in vivo at 100 mg/kg/day in series [3] is at most 10%.
In series [1] (setting [7]), `CCN(CC)c1ccc(NC(=O)c2cccc(CCCOCCOCCOCCOCCOCCOCCOCCOCCOC)c2)c(-c2cc(C(=O)NCc3cccc(C(F)(F)F)c3)ccn2)c1` [Example 269, 2-(2-(3-(2,5,8,11,14,17,20,23,26-nonaoxanonacosan-29-yl)benzamido)-5-(diethylamino)phenyl)-N-(3-(trifluoromethyl)benzyl)isonicotinamide] displayed an AUC of under 10 ng·h/mL and a Cmax of under 10 ng/mL. Besides, the “% recovered in feces” value in series [2] is under 20%. In series [4], the “% remaining, SIF” value is given as over 80%. Further, the “% remaining, SGF” value in series [5] was over 80%. The inhibition in vivo at 100 mg/kg/day in series [3] was at most 10%.
In series [1] (setting [7]), `CCN(CC)c1ccc(NC(=O)c2cccc(CSc3cccc(CC(=O)N(C)CCOCCOCCOCCC(=O)O)c3)c2)c(-c2cc(C(=O)NCc3cccc(C(F)(F)F)c3)ccn2)c1` [Example 144, 3-(2-(2-(2-(2-(3-(3-(4-(diethylamino)-2-(4-(3-(trifluoromethyl)benzylcarbamoyl)pyridin-2-yl)phenylcarbamoyl)benzylthio)phenyl)-N-methylacetamido)ethoxy)ethoxy)ethoxy)propanoic acid] registered an AUC of under 10 ng·h/mL and a Cmax of under 10 ng/mL. Further, in series [4], the “% remaining, SIF” value is listed as over 80%. The “% remaining, SGF” value in series [5] was over 80%. The inhibition in vivo at 100 mg/kg/day in series [3] was at most 10%.
In series [1] (setting [7]), `O=C(NCc1cccc(C(F)(F)F)c1)c1ccnc(-c2cc(N3CCCCC3)ccc2NC(=O)c2cccc(CSc3ccc(C(=O)O)c(Br)c3)c2)c1` [Example 8.21] displayed an AUC of under 30 ng·h/mL and a Cmax of under 30 ng/mL. Moreover, the “% recovered in feces” value in series [2] is on record as over 80%. Besides, the “% remaining, SIF” value in series [4] is given as over 80%. For the same compound, the “% remaining, SGF” value in series [5] is listed as over 80%.
As to `CCN(CC)c1ccc(NC(=O)c2cccc(CCCOCCOCCOCCOCCNS(=O)(=O)c3ccc(C(=O)N(CCOC)CCOCCOCCOCCOCCOCCOCCOC)cc3)c2)c(-c2cc(C(=O)NCc3cccc(C(F)(F)F)c3)ccn2)c1` [Example 272, 2-(2-(3-(1-(4-(2,5,8,11,14,17,20-heptaoxadocosan-22-yl(2-methoxyethyl)carbamoyl)phenylsulfonamido)-3,6,9,12-tetraoxapentadecan-15-yl)benzamido)-5-(diethylamino)phenyl)-N-(3-(trifluoromethyl)benzyl)isonicotinamide], in series [1] (setting [6]), the AUC is under 10 ng·h/mL. Moreover, in series [1] (Table 15, plasma 0.5-4 h), the Cmax was under 10 ng/mL. In series [2], the “% recovered in feces” value is on record as over 80%. Further, the inhibition in vivo at 50 mg/kg/day in series [3] was at most 10%.
In series [1] (setting [7]), `O=C(O)c1cccc(SCc2cccc(C(=O)Nc3ccc(N4CCCCC4)cc3-c3cc(C(=O)NCc4cccc(C(F)(F)F)c4)ccn3)c2)c1` [Example 8.1, 3-(3-(4-(piperidin-1-yl)-2-(4-(3-(trifluoromethyl)benzylcarbamoyl)pyridin-2-yl)phenylcarbamoyl)benzylthio)benzoic acid] displayed an AUC of under 30 ng·h/mL and a Cmax of under 10 ng/mL. In series [2], the “% recovered in feces” value is under 20%. In addition, the “% remaining, SIF” value in series [4] is over 80%. Further, in series [5], the “% remaining, SGF” value is listed as 60-80%.
`CCN(CC)c1ccc(NC(=O)c2cccc(CCCOCCOCCOCCOCCOCCOCCOCCOCCOCCC(=O)O)c2)c(-c2cc(C(=O)NCc3cccc(C(F)(F)F)c3)ccn2)c1` [Example 298, 31-(3-(4-(diethylamino)-2-(4-(3-(trifluoromethyl)benzylcarbamoyl)pyridin-2-yl)phenylcarbamoyl)phenyl)-4,7,10,13,16,19,22,25,28-nonaoxahentriacontan-1-oic acid] registered an AUC in series [1] (setting [6]) of under 30 ng·h/mL. This compound also had a Cmax in series [1] (Table 15, plasma 0.5-4 h) of under 30 ng/mL. For the same compound, in series [2], the “% recovered in feces” value is over 80%. In addition, the inhibition in vivo at 50 mg/kg/day in series [3] lay in the range of 10 to 30%.
The like results for `CCN(CC)c1ccc(NC(=O)c2cccc(CCCOCCOCCOCCOCCOCCOCCC(=O)O)c2)c(-c2cc(C(=O)NCc3cccc(C(F)(F)F)c3)ccn2)c1` [Example 299, 22-(3-(4-(diethylamino)-2-(4-(3-(trifluoromethyl)benzylcarbamoyl)pyridin-2-yl)phenylcarbamoyl)phenyl)-4,7,10,13,16,19-hexaoxadocosan-1-oic acid] were, in that order, under 30 ng·h/mL, under 30 ng/mL, 20-80% and 10 to 30%.
In series [1] (setting [7]), `O=C(O)CCOCCOCCOCCOCCSCc1cccc(C(=O)Nc2ccc(N3CCCCC3)cc2-c2cc(C(=O)N[C@H]3CCCc4ccccc43)ccn2)c1` [Example 142, 1-(3-{[4-(piperidin-1-yl)-2-(4-{[(1S)-1,2,3,4-tetrahydronaphthalen-1-yl]carbamoyl}pyridin-2-yl)phenyl]carbamoyl}phenyl)-5,8,11,14-tetraoxa-2-thiaheptadecan-17-oic acid] registered an AUC of under 10 ng·h/mL and a Cmax of under 10 ng/mL. Moreover, in series [4], the “% remaining, SIF” value is reported as over 80%. Besides, the “% remaining, SGF” value in series [5] is reported as over 80%. In addition, the inhibition in vivo at 100 mg/kg/day in series [3] is at most 10%.

The values above are taken from patent publication US20140023611A1 (priority 2010, published 2014).
